According to US11033539B2, “Compounds of formulas (VII), (VIII), (IX), (XI), (XII), (XIII), and (XIV) as muscarinic receptor 4(M4) antagonists for treating neurological diseases” (Neurocrine Biosciences, Inc., priority 2015, dated 2021):

molecular target: human M4 receptor (Homo sapiens (Human), UniProt P08173); test: Radioligand (tritiated N-methylscopolamine) binding assay, M4; conditions: Ki against the M4 receptor; membranes from CHO cells expressing human M4; tritiated N-methylscopolamine 1.5 nM; read-out: Ki
Method in brief: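 Compounds were tested at twelve concentrations ranging from 10 μM to […] against 1.5 nM radioligand on CHO cell membranes expressing each subtype. Incubation lasts 90 min at 37 °C in HEPES-buffered saline with Mg2+ and EDTA, pH 7.4, and filtration then separates bound radioligand.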

Sequence of human M4 receptor (P08173 whole entry): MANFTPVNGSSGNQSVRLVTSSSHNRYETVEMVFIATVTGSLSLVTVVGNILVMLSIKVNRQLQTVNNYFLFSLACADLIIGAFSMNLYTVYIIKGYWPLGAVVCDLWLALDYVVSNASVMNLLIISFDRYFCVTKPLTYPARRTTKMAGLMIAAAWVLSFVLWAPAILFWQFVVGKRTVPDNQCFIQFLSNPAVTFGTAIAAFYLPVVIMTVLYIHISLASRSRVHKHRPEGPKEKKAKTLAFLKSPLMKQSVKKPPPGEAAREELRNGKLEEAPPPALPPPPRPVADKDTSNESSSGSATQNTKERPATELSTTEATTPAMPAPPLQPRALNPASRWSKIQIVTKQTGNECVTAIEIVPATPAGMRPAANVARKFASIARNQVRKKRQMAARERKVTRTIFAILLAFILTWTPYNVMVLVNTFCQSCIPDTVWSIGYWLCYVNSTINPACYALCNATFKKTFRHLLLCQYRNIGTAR

| Compound | Ki |
| --- | --- |
| C[C@@H]1CN(c2cc(F)cc(C#N)c2)CCN1C(=O)NCC[C@H]1CCN(Cc2ccccc2)C1 [7-8, (2R)-N-{2-[(3S)-1-benzylpyrrolidin-3-yl]ethyl}-4-(3-cyano-5-fluorophenyl)-2-methylpiperazine-1-carboxamide] | 100 to 1000 nM |
| O=C(NCCC1CCN(Cc2ccccc2)CC1)N1CCC(c2ccccc2F)CC1 [8-32, N-[2-(1-benzylpiperidin-4-yl)ethyl]-4-(2-fluorophenyl)piperidine-1-carboxamide] | 100 to 1000 nM |
| O=C(NCCC1CCN(Cc2ccccc2)CC1)N1CCN(c2ccc(OC(F)(F)F)cc2)CC1 [8-8, N-[2-(1-benzylpiperidin-4-yl)ethyl]-4-[4-(trifluoromethoxy)phenyl]piperazine-1-carboxamide] | 10 to 100 nM |
| COc1nc(N2C[C@@H](C)N(C(=O)NCCC3CCN(Cc4ccccc4)CC3)[C@@H](C)C2)ncc1C#N [4-69, (2R,6S)-N-[2-(1-benzylpiperidin-4-yl)ethyl]-4-(5-cyano-4-methoxypyrimidin-2-yl)-2,6-dimethylpiperazine-1-carboxamide] | 10 to 100 nM |
| C[C@@H]1CN(c2cc(F)c(F)c(F)c2)CCN1C(=O)NCCC1CCN(Cc2cc(F)ccc2F)CC1 [6-25, (2R)-N-(2-{1-[(2,5-difluorophenyl)methyl]piperidin-4-yl}ethyl)-2-methyl-4-(3,4,5-trifluorophenyl)piperazine-1-carboxamide] | 100 to 1000 nM |
| C[C@@H]1CN(c2ncc(C#N)cn2)C[C@H](C)N1C(=O)NCCC1CCN(Cc2ccncc2)CC1 [6-62, (2R,6S)-4-(5-cyanopyrimidin-2-yl)-2,6-dimethyl-N-{2-[1-(pyridin-4-ylmethyl)piperidin-4-yl]ethyl}piperazine-1-carboxamide] | 100 to 1000 nM |
| C[C@@H]1CN(c2ncc(C(F)(F)F)cn2)CCN1C(=O)NCCC1CCN(Cc2ccccc2F)CC1 [6-38, (2R)-N-(2-{1-[(2-fluorophenyl)methyl]piperidin-4-yl}ethyl)-2-methyl-4-[5-(trifluoromethyl)pyrimidin-2-yl]piperazine-1-carboxamide] | 10 to 100 nM |
| C[C@@H]1CN(c2cc(F)c(F)cc2F)CCN1C(=O)NCCC1CCN(Cc2ccccc2)CC1 [4-36, (2R)-N-[2-(1-benzylpiperidin-4-yl)ethyl]-2-methyl-4-(2,4,5-trifluorophenyl)piperazine-1-carboxamide] | 10 to 100 nM |
| Cc1nc(C(=O)NCCC2CCN(Cc3ccccc3)CC2)cn1-c1ccc(C#N)cn1 [9-74, N-[2-(1-benzylpiperidin-4-yl)ethyl]-1-(5-cyanopyridin-2-yl)-2-methyl-1H-imidazole-4-carboxamide] | 100 to 1000 nM |
| N#Cc1cnc(N2CCN(C(=O)NCCC3CCN(Cc4ccccc4)CC3)[C@@H](CO)C2)nc1 [5-26, (2R)-N-[2-(1-benzylpiperidin-4-yl)ethyl]-4-(5-cyanopyrimidin-2-yl)-2-(hydroxymethyl)piperazine-1-carboxamide] | 100 to 1000 nM |
| O=C(NCCC1CCN(Cc2ccccc2)CC1)N1CCC(c2c[nH]c3ccccc23)CC1 [8-30, N-[2-(1-benzylpiperidin-4-yl)ethyl]-4-(1H-indol-3-yl)piperidine-1-carboxamide] | 100 to 1000 nM |
| C[C@@H]1CN(c2ncc(C#N)c(N(C)C)n2)CCN1C(=O)NCCC1CCN(Cc2ccccc2)CC1 [5-15, (2R)-N-[2-(1-benzylpiperidin-4-yl)ethyl]-4-[5-cyano-4-(dimethylamino)pyrimidin-2-yl]-2-methylpiperazine-1-carboxamide] | 10 to 100 nM |
| Cc1ccc(-c2ccc(C(=O)NCCC3CCN(Cc4ccccc4)CC3)c(F)c2)cc1 [9-40, N-[2-(1-benzylpiperidin-4-yl)ethyl]-2-fluoro-4-(4-methylphenyl)benzamide] | 10 to 100 nM |
| O=C(NCCC1CCN(Cc2ccccc2)CC1)c1ccc(-c2ccc(O)cc2)cc1 [9-69, N-[2-(1-benzylpiperidin-4-yl)ethyl]-4-(4-hydroxyphenyl)benzamide] | 100 to 1000 nM |
| CNc1nc(N2C[C@@H](C)N(C(=O)NCCC3CCN(Cc4ccccc4)CC3)[C@@H](C)C2)ncc1C#N [5-21, (2R,6S)-N-[2-(1-benzylpiperidin-4-yl)ethyl]-4-[5-cyano-4-(methylamino)pyrimidin-2-yl]-2,6-dimethylpiperazine-1-carboxamide] | 100 to 1000 nM |
| O=C(NCCC1CCN(Cc2ccccc2)CC1)N1CCC(c2cccc(F)c2)CC1 [8-26, N-[2-(1-benzylpiperidin-4-yl)ethyl]-4-(3-fluorophenyl)piperidine-1-carboxamide] | 100 to 1000 nM |
| C[C@@H]1CN(c2ncc(C#N)c(NCC(F)(F)F)n2)CCN1C(=O)NCCC1CCN(Cc2ccccc2)CC1 [5-7, (2R)-N-[2-(1-benzylpiperidin-4-yl)ethyl]-4-{5-cyano-4-[(2,2,2-trifluoroethyl)amino]pyrimidin-2-yl}-2-methylpiperazine-1-carboxamide] | 10 to 100 nM |
| COc1cccc(CN2CCC(CCNC(=O)C3CCN(c4ccc(OC(F)(F)F)cc4)CC3)CC2)n1 [11-30, N-(2-{l-[(6-methoxypyridin-2-yl)methyl]piperidin-4-yl}ethyl)-1-[4-(trifluoromethoxy)phenyl]piperidine-4-carboxamide] | 100 to 1000 nM |
| COc1ccccc1C1(O)CCN(C(=O)NCCC2CCN(Cc3ccccc3)CC2)CC1 [8-42, N-[2-(1-benzylpiperidin-4-yl)ethyl]-4-hydroxy-4-(2-methoxyphenyl)piperidine-1-carboxamide] | 100 to 1000 nM |

Continued, values first:

| Ki | Compound |
| --- | --- |
| 10 to 100 nM | C[C@@H]1CN(c2ccc(Cl)nc2)CCN1C(=O)NCCC1CCN(Cc2ccccc2)CC1 [22-11] |
| 10 to 100 nM | COc1cc(N2CCN(C(=O)NCCC3CCN(Cc4ccccc4)CC3)[C@H](C)C2)ccn1 [22-16] |
| 100 to 1000 nM | COC1(C(=O)NCCC2CCN(Cc3ccccc3)CC2)CCN(c2ccccc2OC(F)(F)F)CC1 [10-75, N-[2-(1-benzylpiperidin-4-yl)ethyl]-4-methoxy-1-[2-(trifluoromethoxy)phenyl]piperidine-4-carboxamide] |
| 100 to 1000 nM | C[C@@H]1CN(c2ncc(C#N)cn2)C[C@H](C)N1C(=O)NCCC1CCN(CC2CCCS(=O)(=O)C2)CC1 (stereo partly drawn) [21-11, (2R,6S)-4-(5-cyanopyrimidin-2-yl)-N-(2-{1-[(1,1-dioxo-1-thian-3-yl)methyl]piperidin-4-yl}ethyl)-2,6-dimethylpiperazine-1-carboxamide] |
| 100 to 1000 nM | O=C(NCCC1CCN(Cc2ccccc2)CC1)[C@H]1CCN(c2ccc(OC(F)(F)F)cc2)C1 [10-71, (3S)-N-[2-(1-benzylpiperidin-4-yl)ethyl]-1-[4-(trifluoromethoxy)phenyl]pyrrolidine-3-carboxamide] |
| 100 to 1000 nM | O=C(NCC(O)C1CCN(CC2CCCCC2)CC1)C1CCN(c2ccc(OC(F)(F)F)cc2)CC1 (stereo not shown) [11-23, N-{2-[1-(cyclohexylmethyl)piperidin-4-yl]-2-hydroxyethyl}-1-[4-(trifluoromethoxy)phenyl]piperidine-4-carboxamide] |
| 10 to 100 nM | Cc1c(C(=O)NCCC2CCN(Cc3ccccc3)CC2)cnc2cc(-c3ccnc(F)c3)nn12 [18-20] |
| 10 to 100 nM | O=C(NCCC1CCN(Cc2ccccc2)CC1)C1CCN(c2ccc(F)cc2)CC1 [10-35, N-[2-(1-benzylpiperidin-4-yl)ethyl]-1-(4-fluorophenyl)piperidine-4-carboxamide] |
| 10 to 100 nM | COc1cc(OC(F)(F)F)cc(N2CCC(C(=O)NCCC3CCN(Cc4ccccc4)CC3)CC2)c1 [10-29, N-[2-(1-benzylpiperidin-4-yl)ethyl]-1-[3-methoxy-5-(trifluoromethoxy)phenyl]piperidine-4-carboxamide] |
